Like-named read-outs stand apart in the source and are kept apart here.
How the values were obtained:
MYB mRNA = experiment: RT-qPCR splicing assay, MYB mRNA canonical (CJ) and alternative (AJ) junction; assay type: cell-based, human; details: Homo sapiens; for AC50: MYB alternative junction mRNA, read-out: MYB AJ (increase in AJ mRNA, AC50)
In short: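 A673 or K562 cells treated 24 h at 37 °C with 11-point 3-fold dilutions (top final 10 uM, DMSO ≤0.25%). Lysates analysed by one-step RT-qPCR for canonical (CJ) and alternative-exon (AJ) junctions, normalized to GAPDH, GUSB or PPIA. ΔΔCt vs DMSO, RQ = 2^(−ΔΔCt), expressed as percentage response.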

Target C = experiment: RT-qPCR canonical junction panel assay, Target C mRNA; assay type: cell-based; details: Table 4, read-out: Target C IC50 (decrease in CJ mRNA levels)
In short: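 A673 or K562 cells treated with compound; CJ mRNA quantified by junction-spanning RT-qPCR probe after cDNA synthesis, normalised to GAPDH, GUSB or PPIA and DMSO (2^−ΔΔCt), scaled to set ΔCt assay window; IC50 from 4-parameter fit of CJ decrease.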

[1] = MYB canonical junction mRNA, RT-qPCR, read-out: MYB CJ (decrease in CJ mRNA levels, IC50)
[2] = canonical junction qPCR panel, Table 4, read-out: MYB IC50 (decrease in CJ mRNA levels)

SMILES	AC50 (MYB mRNA; RT-qPCR) [nM]	IC50 (MYB mRNA; [1]) [nM]	IC50 (MYB mRNA; [2]) [nM]	IC50 (Target C) [nM]
Cn1cc2cc(-c3ccc4nc([C@@H]5CCNC6(CC6)C5)ccc4n3)c(O)cc2n1 (single isomer, unassigned) [Compound 495]	< 100	< 100	< 100	100 to 1000
Cn1cc2cc(-c3ccc4nc([C@H]5CCNC6(CC6)C5)ccc4n3)c(O)cc2n1 (single isomer, unassigned) [Compound 496]	< 100	100 to 1000	100 to 1000	100 to 1000
Cc1nc2cc(O)c(-c3ccc4nc([C@H]5CCNC6(CC6)C5)ccc4n3)cc2o1 (single isomer, unassigned) [Compound 497]	< 100	< 100	< 100	< 100
Cc1nc2cc(O)c(-c3ccc4nc([C@@H]5CCNC6(CC6)C5)ccc4n3)cc2o1 (single isomer, unassigned) [Compound 498]	< 100	100 to 1000	100 to 1000	100 to 1000
CN[C@@H]1CCN(c2ccc3nc(-c4cn5cc(C)nc5c(C)c4O)ncc3n2)C1 (single isomer, unassigned) [Compound 504]	100 to 1000	100 to 1000	100 to 1000	100 to 1000
CNC(=O)c1nc(-c2cc3cn(C)nc3c(C)c2O)nc2ccc(N3CCN[C@@H](C)C3)cc12 (single isomer, unassigned) [Compound 512]	< 100	< 100	< 100	1000 to 10000
CN[C@@H]1CCN(c2ccc3nc(-c4cc5cn(C)nc5c(C)c4O)ncc3c2)C1 (single isomer, unassigned) [Compound 521]	< 100	< 100	< 100	100 to 1000
CNC(=O)c1nc(-c2cc3cn(C)nc3c(C)c2O)nc2ccc(N3C[C@@H](C)N[C@H](C)C3)cc12 (single isomer, unassigned) [Compound 653]	< 100	< 100	< 100	100 to 1000
Cc1c(O)c(-c2ncc3cc(N4C[C@@H](C)N[C@H](C)C4)ccc3n2)cc2cn(C)nc12 (single isomer, unassigned) [Compound 661]	100 to 1000	100 to 1000	100 to 1000	100 to 1000
CNC(=O)c1nc(-c2cc3cn(C)nc3c(F)c2O)nc2ccc(N3C[C@@H](C)N[C@H](C)C3)cc12 (single isomer, unassigned) [Compound 668]	< 100	< 100	< 100	1000 to 10000
CNC(=O)c1nc(-c2cc3cn(C)nc3c(F)c2O)nc2ccc(N3C[C@H](C)N[C@@H](C)C3)cc12 (single isomer, unassigned) [Compound 669]	< 100	< 100	< 100	1000 to 10000
CNC(=O)c1nc(-c2cc3cn(C)nc3cc2O)nc2ccc(N3C[C@H](C)N[C@@H](C)C3)cc12 (single isomer, unassigned) [Compound 676]	< 100	< 100	< 100	> 10000
CNC(=O)c1nc(-c2cc3cn(C)nc3cc2O)nc2ccc(N3C[C@@H](C)N[C@H](C)C3)cc12 (single isomer, unassigned) [Compound 677]	< 100	< 100	< 100	1000 to 10000
Cc1cn2cc(-c3ccc4cc(N5C[C@H](C)N[C@@H](C)C5)cc(F)c4n3)cc(F)c2n1 (single isomer, unassigned) [Compound 705, 2,2,2-trifluoroacetate]	100 to 1000	< 100	< 100	100 to 1000
Cn1cc2cc(-c3ncc4nc(C5CCNCC5)ccc4n3)c(O)c(F)c2n1 [Compound 155]	< 100	< 100	< 100	100 to 1000
Cc1nc2cc(O)c(-c3ccc4nc(N5CCNC(C(C)(C)C)C5)ccc4n3)cc2o1 (stereo not shown) [Compound 492]	100 to 1000	1000 to 10000	1000 to 10000	1000 to 10000

Source: patent US20250092065A1, “2-(INDAZOL-5-YL)-6-(PIPERIDIN-4-YL)-1,7-NAPHTHYRIDINE DERIVATIVES AND RELATED COMPOUNDS AS MODULATORS FOR SPLICING NUCLEIC ACIDS AND FOR THE TREATMENT OF PROLIFERATIVE DISEASES” (REMIX THERAPEUTICS INC., priority 2022, published 2025)
